Assay results as given in BindingDB's records for doi:10.1021/jm401549m (Chiesi Farmaceutici, 2014).

Molecular target: cGMP-specific 3',5'-cyclic phosphodiesterase PDE5A (Homo sapiens) (UniProt O76074)
Assay: Inhibition of human platelet PDE5

CS(=O)(=O)Nc1ccc(C(=O)O[C@@H](Cc2c(Cl)c[n+]([O-])cc2Cl)c2ccc(OC(F)F)c(OCC3CC3)c2)cc1OCC1CC1 [Chf-6001]
IC50: > 1 µM
